Data on 41 molecules can be found in patent US20230322747A1, “OXADIAZOLE HDAC6 INHIBITORS AND USES THEREOF” (Eikonizo Therapeutics, Inc., priority 2022, published 2023).

The target in one assay is Human HDAC6 (Homo sapiens (Human), UniProt Q9UBN7). Nature of the assay: HDAC6 enzymatic activity assay (Caliper endpoint or fluorogenic format). To be noted: for IC50: in vitro enzymatic; for Selectivity (6 v 8) (fold): ratio of HDAC8 IC50/HDAC6 IC50. It counts as biochemical.
In another assay the target is Human HDAC8 (Homo sapiens (Human), UniProt Q9BY41). Kind of assay: Caliper endpoint assay for HDAC8 enzymatic activity. The class given is biochemical. To be noted: in vitro enzymatic.
Sequence of Human HDAC8 (Q9BY41 whole entry): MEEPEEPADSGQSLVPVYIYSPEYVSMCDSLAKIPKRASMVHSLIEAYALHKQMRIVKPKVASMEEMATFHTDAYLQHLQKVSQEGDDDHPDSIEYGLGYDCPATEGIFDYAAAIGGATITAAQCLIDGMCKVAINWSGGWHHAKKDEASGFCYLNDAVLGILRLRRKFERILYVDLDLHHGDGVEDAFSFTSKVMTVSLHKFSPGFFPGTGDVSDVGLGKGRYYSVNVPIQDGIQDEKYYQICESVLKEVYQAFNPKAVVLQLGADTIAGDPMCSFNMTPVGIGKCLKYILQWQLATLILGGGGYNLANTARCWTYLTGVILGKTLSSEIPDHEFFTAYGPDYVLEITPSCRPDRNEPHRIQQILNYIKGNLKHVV

Sequence of Human HDAC6 (Q9UBN7 whole entry): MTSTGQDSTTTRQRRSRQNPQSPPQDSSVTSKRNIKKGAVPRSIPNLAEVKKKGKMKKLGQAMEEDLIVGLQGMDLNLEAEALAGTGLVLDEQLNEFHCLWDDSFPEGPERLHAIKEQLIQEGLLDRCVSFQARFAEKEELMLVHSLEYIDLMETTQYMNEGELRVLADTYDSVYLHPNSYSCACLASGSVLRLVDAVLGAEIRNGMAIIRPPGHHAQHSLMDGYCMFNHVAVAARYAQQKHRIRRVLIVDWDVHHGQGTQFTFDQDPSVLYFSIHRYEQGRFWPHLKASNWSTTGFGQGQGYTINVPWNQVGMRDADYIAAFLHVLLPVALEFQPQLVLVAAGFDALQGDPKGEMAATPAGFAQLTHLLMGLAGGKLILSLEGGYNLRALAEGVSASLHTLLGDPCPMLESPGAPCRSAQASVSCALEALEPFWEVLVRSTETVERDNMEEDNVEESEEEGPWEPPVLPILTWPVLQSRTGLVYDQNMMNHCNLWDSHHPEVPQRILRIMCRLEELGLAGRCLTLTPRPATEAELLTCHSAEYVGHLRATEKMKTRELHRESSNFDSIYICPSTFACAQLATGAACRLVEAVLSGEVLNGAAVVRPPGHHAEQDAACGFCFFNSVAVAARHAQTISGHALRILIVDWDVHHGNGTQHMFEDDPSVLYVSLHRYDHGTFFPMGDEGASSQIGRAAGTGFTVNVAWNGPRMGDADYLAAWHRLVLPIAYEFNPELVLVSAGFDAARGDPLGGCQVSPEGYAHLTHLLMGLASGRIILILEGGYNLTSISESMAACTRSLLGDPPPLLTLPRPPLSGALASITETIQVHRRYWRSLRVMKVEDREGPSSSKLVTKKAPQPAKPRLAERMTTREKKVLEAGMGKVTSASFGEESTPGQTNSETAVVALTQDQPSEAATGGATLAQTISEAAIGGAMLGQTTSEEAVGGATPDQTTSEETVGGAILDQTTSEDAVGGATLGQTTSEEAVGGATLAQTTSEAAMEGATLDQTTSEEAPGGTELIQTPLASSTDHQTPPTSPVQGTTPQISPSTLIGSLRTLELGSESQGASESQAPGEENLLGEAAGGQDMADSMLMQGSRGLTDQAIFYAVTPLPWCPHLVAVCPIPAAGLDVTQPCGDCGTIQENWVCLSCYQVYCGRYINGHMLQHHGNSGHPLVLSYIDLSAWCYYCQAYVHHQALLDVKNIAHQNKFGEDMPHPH

The IC50 is the concentration needed to halve the response being measured. For `FC(F)c1nnc(-c2ccc(COc3ccnc(N4CCOCC4)n3)nc2)o1` [Compound 99], on Human HDAC6, the IC50 was in the range of 0.1 to 1 µM and the “Selectivity (6 v 8) (fold)” value was “V (V: >1000)”. In addition, the half-maximal inhibitory concentration (IC50) on Human HDAC8 is above 100 µM.
For `N#Cc1ccc(OCc2ccc(-c3nnc(C(F)F)o3)cn2)c(F)c1` [Compound 47], the IC50 was in the range of 0.001 to 0.1 µM against Human HDAC6 and 10 to 100 µM on Human HDAC8. For the same molecule, the “Selectivity (6 v 8) (fold)” value at Human HDAC6 is on record as “V (V: >1000)”.
Turning to `N#Cc1cccc(OCc2ccc(-c3nnc(C(F)F)o3)cn2)c1F` [Compound 46], the IC50 is 0.001 to 0.1 µM at Human HDAC6 and above 100 µM against Human HDAC8. On Human HDAC6, the “Selectivity (6 v 8) (fold)” value is “V (V: >1000)”.
For `FC(F)c1nnc(-c2ccc(COc3ccccn3)nc2)o1` [Compound 16, 2-(difluoromethyl)-5-(6-((pyridin-2-yloxy)methyl)pyridin-3-yl)-1,3,4-oxadiazole], in that order: 0.001 to 0.1 µM, above 100 µM and “V (V: >1000)”.
As for `CC(C)n1ccc(OCc2ccc(-c3nnc(C(F)F)o3)cn2)n1` [Compound 79], the half-inhibitory concentration (IC50) against Human HDAC6 is 0.001 to 0.1 µM; against Human HDAC8, above 100 µM. Moreover, the “Selectivity (6 v 8) (fold)” value on Human HDAC6 was “V (V: >1000)”.
For `Fc1cncc(OCc2ccc(-c3nnc(C(F)F)o3)cn2)c1` [Compound 19, 2-(Difluoromethyl)-5-(6-(((5-fluoropyridin-3-yl)oxy)methyl)pyridin-3-yl)-1,3,4-oxadiazole], in that order: 0.001 to 0.1 µM, above 100 µM and “V (V: >1000)”.
For `Cn1ncc2cc(OCc3ccc(-c4nnc(C(F)F)o4)cn3)ccc21` [Compound 37], in that order: 0.001 to 0.1 µM, 10 to 100 µM and “V (V: >1000)”.
Turning to `N#Cc1ccc(OCc2ccc(-c3nnc(C(F)F)o3)cn2)cc1` [Compound 118, 4-((5-(5-(difluoromethyl)-1,3,4-oxadiazol-2-yl)pyridin-2-yl)methoxy)benzonitrile], on Human HDAC6, the half-inhibitory concentration (IC50) lay in the range of 0.001 to 0.1 µM and the “Selectivity (6 v 8) (fold)” value was “V (V: >1000)”. Moreover, at Human HDAC8, the IC50 fell in the range of 10 to 100 µM.
For `FC(F)c1nnc(-c2ccc(C(F)(F)Oc3cccc4cccnc34)nc2)o1` [Compound 13, 2-(6-(difluoro(quinolin-8-yloxy)methyl)pyridin-3-yl)-5-(difluoromethyl)-1,3,4-oxadiazole], in that order: 0.001 to 0.1 µM, “V (V: >1000)” and above 100 µM.
On to `Fc1ccc(OCc2ncc(-c3nnc(C(F)F)o3)cn2)cc1` [Compound 1, 2-(difluoromethyl)-5-(2-((4-fluorophenoxy)methyl)pyrimidin-5-yl)-1,3,4-oxadiazole], for which, at Human HDAC6, the concentration for half-maximal inhibition (IC50) was in the range of 0.001 to 0.1 µM and the “Selectivity (6 v 8) (fold)” value is reported as “V (V: >1000)”. This molecule returned a half-inhibitory concentration (IC50) at Human HDAC8 above 100 µM.
On the same counts, the results for `C#Cc1ccccc1OCc1ccc(-c2nnc(C(F)F)o2)cn1` [Compound 41] are 0.001 to 0.1 µM, “V (V: >1000)” and above 100 µM.
Regarding `Cc1ccnc(OCc2ccc(-c3nnc(C(F)F)o3)cn2)c1` [Compound 71], at Human HDAC6, the IC50 lay within 0.001 to 0.1 µM and the “Selectivity (6 v 8) (fold)” value is “V (V: >1000)”. The IC50 against Human HDAC8 was above 100 µM.
As for `Cn1cc(OCc2ccc(-c3nnc(C(F)F)o3)cn2)cn1` [Compound 65], on Human HDAC6, the half-inhibitory concentration (IC50) lay within 0.1 to 1 µM and the “Selectivity (6 v 8) (fold)” value is “V (V: >1000)”. Also, the IC50 on Human HDAC8 was above 100 µM.
`FC(F)c1nnc(-c2ccc(COc3cccc4cncnc34)nc2)o1` [Compound 56]: at Human HDAC6, the IC50 was in the range of 0.001 to 0.1 µM and the “Selectivity (6 v 8) (fold)” value is recorded as “V (V: >1000)”. Moreover, the IC50 at Human HDAC8 was above 100 µM.
Take `CN1CCc2c(OCc3ccc(-c4nnc(C(F)F)o4)cn3)noc2C1` [Compound 191, 3-((5-(5-(Difluoromethyl)-1,3,4-oxadiazol-2-yl)pyridin-2-yl)methoxy)-6-methyl-4,5,6,7-tetrahydroisoxazolo[5,4-c]pyridine]: at Human HDAC6, the IC50 lay within 0.1 to 1 µM and the “Selectivity (6 v 8) (fold)” value is “IV (IV: >100-1000)”. Moreover, the IC50 at Human HDAC8 is above 100 µM.
Turning to `N#Cc1ccc(F)cc1OCc1ccc(-c2nnc(C(F)F)o2)cn1` [Compound 50], on Human HDAC6, the half-inhibitory concentration (IC50) was in the range of 0.001 to 0.1 µM and the “Selectivity (6 v 8) (fold)” value is given as “V (V: >1000)”. This molecule also came in with a half-inhibitory concentration (IC50) against Human HDAC8 above 100 µM.
Regarding `FC(F)c1nnc(-c2ccc(COc3cccc4ccccc34)nc2)o1` [Compound 11, 2-(difluoromethyl)-5-(6-((naphthalen-1-yloxy)methyl)pyridin-3-yl)-1,3,4-oxadiazole], on Human HDAC6, the IC50 was in the range of 0.001 to 0.1 µM and the “Selectivity (6 v 8) (fold)” value is on record as “V (V: >1000)”. Moreover, the IC50 against Human HDAC8 is above 100 µM.
For `Fc1ccc(OCc2ccc(-c3nnc(C(F)F)o3)cn2)cc1F` [Compound 9, 2-(difluoromethyl)-5-(6-((3,4-difluorophenoxy)methyl)pyridin-3-yl)-1,3,4-oxadiazole], on Human HDAC6, the IC50 fell in the range of 0.001 to 0.1 µM and the “Selectivity (6 v 8) (fold)” value is on record as “V (V: >1000)”. For the same molecule, at Human HDAC8, the IC50 was above 100 µM.
For `C#Cc1cccc(OCc2ccc(-c3nnc(C(F)F)o3)cn2)c1` [Compound 39], at Human HDAC6, the concentration for half-maximal inhibition (IC50) is 0.001 to 0.1 µM and the “Selectivity (6 v 8) (fold)” value is recorded as “V (V: >1000)”. At Human HDAC8, the IC50 is above 100 µM.
Regarding `Fc1ccc(OC(F)(F)c2ccc(-c3nnc(C(F)F)o3)cn2)cc1` [Compound 15, 2-(6-(difluoro(4-fluorophenoxy)methyl)pyridin-3-yl)-5-(difluoromethyl)-1,3,4-oxadiazole], the half-inhibitory concentration (IC50) on Human HDAC6 is 0.1 to 1 µM; at Human HDAC8, above 100 µM. The “Selectivity (6 v 8) (fold)” value on Human HDAC6 was “V (V: >1000)”.
On the same counts, the results for `FC(F)c1nnc(-c2ccc(COc3ccc(C4CC4)cn3)nc2)o1` [Compound 85, 2-[6-[(5-cyclopropyl-2-pyridyl)oxymethyl]-3-pyridyl]-5-(difluoromethyl)-1,3,4-oxadiazole] are 0.1 to 1 µM, above 100 µM and “V (V: >1000)”.
As to `FC(F)c1nnc(-c2ccc(COc3cccn4ccnc34)nc2)o1` [Compound 82], on Human HDAC6, the IC50 lay within 0.001 to 0.1 µM and the “Selectivity (6 v 8) (fold)” value is listed as “V (V: >1000)”. The IC50 on Human HDAC8 is above 100 µM.
For `FC(F)c1nnc(-c2ccc(COc3ccn4cnnc4c3)nc2)o1` [Compound 184, 2-(6-(([1,2,4]triazolo[4,3-a]pyridin-7-yloxy)methyl)pyridin-3-yl)-5-(difluoromethyl)-1,3,4-oxadiazole], in that order: 0.1 to 1 µM, “IV (IV: >100-1000)” and above 100 µM.
Consider `CNC(=O)c1cccc(OCc2ccc(-c3nnc(C(F)F)o3)cn2)c1` [Compound 197, 3-((5-(5-(difluoromethyl)-1,3,4-oxadiazol-2-yl)pyridin-2-yl)methoxy)-N-methylbenzamide], for which, at Human HDAC6, the IC50 was 0.001 to 0.1 µM.
Same read-out and setting: the same measure for `Fc1cc(-c2nnc(C(F)F)o2)cnc1COc1ccc2cccnc2c1` [Compound 124]: 0.001 to 0.1 µM.
Molecule `O=C(Nc1ccccc1)c1cccc(OCc2ccc(-c3nnco3)cn2)c1` [Compound 196, 3-((5-(1,3,4-oxadiazol-2-yl)pyridin-2-yl)methoxy)-N-phenylbenzamide] came in with an IC50 against Human HDAC6 of 0.001 to 0.1 µM.
`FC(F)c1nnc(-c2ccc(COc3nccn4ccnc34)nc2)o1` [Compound 86, 2-(difluoromethyl)-5-(6-((imidazo[1,2-a]pyrazin-8-yloxy)methyl)pyridin-3-yl)-1,3,4-oxadiazole] yielded a half-inhibitory concentration (IC50) against Human HDAC6 of 0.001 to 0.1 µM.
As for `Fc1ccc(OCc2ncc(-c3nnc(C(F)F)o3)cn2)cc1` [Compound 166, 2-(difluoromethyl)-5-(2-((4-fluorophenoxy)methyl)pyrimidin-5-yl)-1,3,4-oxadiazole], on Human HDAC6, the IC50 was 0.001 to 0.1 µM.
On the same count and under the same terms, to `N#Cc1ccc(OCc2ncc(-c3nnc(C(F)F)o3)cc2F)cc1` [Compound 165] belongs 0.001 to 0.1 µM.
The same measure, in the same setting: to `FC(F)c1nnc(-c2ccc(COc3cnc4ccnn4c3)nc2)o1` [Compound 183, 2-(Difluoromethyl)-5-(6-((pyrazolo[1,5-a]pyrimidin-6-yloxy)methyl)pyridin-3-yl)-1,3,4-oxadiazole] belongs 0.001 to 0.1 µM.
On the same count and under the same terms, the same measure for `FC(F)c1nnc(-c2cnc(COc3cccc4ocnc34)nc2)o1` [Compound 144]: 0.001 to 0.1 µM.
On Human HDAC6, `FC(F)c1nnc(-c2ccc(COc3ccnc(-c4ccccc4)c3)nc2)o1` [Compound 186, 2-(Difluoromethyl)-5-(6-(((2-phenylpyridin-4-yl)oxy)methyl)pyridin-3-yl)-1,3,4-oxadiazole] displayed an IC50 of 0.001 to 0.1 µM.
Molecule `Fc1cncnc1OCc1ccc(-c2nnc(C(F)F)o2)cn1` [Compound 107] displayed an IC50 at Human HDAC6 of 0.001 to 0.1 µM.
For the molecule `N#Cc1ccc(OCc2ncc(-c3nnc(C(F)F)o3)cn2)cc1` [Compound 164], the half-inhibitory concentration (IC50) on Human HDAC6 was 0.001 to 0.1 µM.
In turn, `Cn1cc2cc(OCc3ncc(-c4nnc(C(F)F)o4)cc3F)ccc2n1` [Compound 178, 2-(Difluoromethyl)-5-(5-fluoro-6-(((2-methyl-2H-indazol-5-yl)oxy)methyl)pyridin-3-yl)-1,3,4-oxadiazole] displayed a half-maximal inhibitory concentration (IC50) against Human HDAC6 of 0.001 to 0.1 µM.
Turning to `Fc1cc(-c2nnc(C(F)F)o2)cnc1COc1ccc2nccnc2c1` [Compound 151], the half-maximal inhibitory concentration (IC50) against Human HDAC6 is 0.001 to 0.1 µM.
`Cc1noc2cccc(OCc3ncc(-c4nnc(C(F)F)o4)cn3)c12` [Compound 134]: the 50% inhibitory concentration (IC50) at Human HDAC6 lay in the range of 0.001 to 0.1 µM.
On Human HDAC6, `Fc1cc(-c2nnc(C(F)F)o2)cnc1COc1ccc2ccccc2c1` [Compound 182, 2-(Difluoromethyl)-5-(5-fluoro-6-((naphthalen-2-yloxy)methyl)pyridin-3-yl)-1,3,4-oxadiazole] came in with an IC50 of 0.001 to 0.1 µM.
The same measure, in the same setting: the same measure for `FC(F)c1nnc(-c2ccc(COc3ccc(-c4ccccc4)cc3)nc2)o1` [Compound 185, 2-(6-(([1,1′-Biphenyl]-4-yloxy)methyl)pyridin-3-yl)-5-(difluoromethyl)-1,3,4-oxadiazole]: 0.001 to 0.1 µM; for `Fc1cc(-c2nnc(C(F)F)o2)cnc1COc1cccc2cccnc12` [Compound 130]: 0.001 to 0.1 µM.
`Cc1cccc2c(OCc3ccc(-c4nnc(C(F)F)o4)cn3)ncnc12` [Compound 96] gave an IC50 at Human HDAC6 of 0.001 to 0.1 µM.
